Among the data in patent US20260325533A1, “CDK INHIBITOR COMPOUNDS” (ALEKSIA THERAPEUTICS, INC., priority 2023, published 2026) are IC50 values, retold here.

Where two headings read alike, the source gives them in different places. A value given as a limit tells only on which side of the number the result lay.

What all share (assay type): biochemical
One test addresses CDK2/CCNE1 (Homo sapiens, UniProt P24941). Kind of test: CDK2 homogeneous time-resolved fluorescence (HTRF) kinase assay. To be noted: CDK2/CCNE. In a few lines:
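TR-FRET read-out (665 nm, or 665/615 ratio) of Eu-antibody detection of phospho-4E-BP1 (Thr37/46) ULight peptide. Enzyme 3 nM, ATP 1 mM, peptide 50 nM, 1% DMSO; 60 min reaction at 23 °C after 20 min compound preincubation. IC50 from 11-point half-log titrations, top typically 10 μM.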

In a further test the target is CDK6/CCND1 (Homo sapiens, UniProt Q00534). In words: CDK6 homogeneous time-resolved fluorescence (HTRF) kinase assay. As to conditions: CDK6/CCND. In a few lines: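 Assay conditions: HEPES buffer containing 10 mM MgCl2, 1 mM EGTA, 2 mM DTT, 0.01% Tween 20; 1 nM CDK6/CCND1, 50 nM peptide substrate, 1 mM ATP. Detection after 60 min reaction used 2 nM europium antibody with 340 nm excitation. Potency fitted from half-log series, 11 points.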
CDK6/CCND1, sequence (Q00534 whole entry): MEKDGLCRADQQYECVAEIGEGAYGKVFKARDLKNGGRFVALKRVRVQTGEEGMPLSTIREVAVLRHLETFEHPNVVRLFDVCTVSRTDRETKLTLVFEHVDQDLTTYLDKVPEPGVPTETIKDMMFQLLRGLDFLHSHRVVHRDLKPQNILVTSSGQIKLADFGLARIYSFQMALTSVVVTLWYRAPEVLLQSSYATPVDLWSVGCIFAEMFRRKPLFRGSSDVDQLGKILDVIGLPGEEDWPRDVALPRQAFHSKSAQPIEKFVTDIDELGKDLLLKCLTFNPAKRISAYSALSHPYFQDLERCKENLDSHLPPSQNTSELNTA
CDK6/CCND1, sequence (P24385 whole entry partner): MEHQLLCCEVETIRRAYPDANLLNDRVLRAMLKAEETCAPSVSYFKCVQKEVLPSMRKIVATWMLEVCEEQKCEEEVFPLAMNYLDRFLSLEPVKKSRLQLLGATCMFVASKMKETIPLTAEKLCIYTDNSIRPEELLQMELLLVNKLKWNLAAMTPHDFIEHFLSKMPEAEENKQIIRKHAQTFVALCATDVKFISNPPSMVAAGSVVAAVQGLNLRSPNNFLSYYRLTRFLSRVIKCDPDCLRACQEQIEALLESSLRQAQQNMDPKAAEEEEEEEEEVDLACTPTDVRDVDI

The next test concerns the target CDK4/CCND3 (Homo sapiens, UniProt P11802). In words: CDK4 homogeneous time-resolved fluorescence (HTRF) kinase assay. As to conditions: CDK4/CCND. In a few lines: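 TR-FRET read (665 nm, or 665/615 ratio) of 4E-BP1 Thr37/46 phosphorylation by 1.5 nM CDK4/CCND3 at 1 mM ATP, 50 nM ULight peptide, 1% DMSO. Reaction ran 60 min at 23 °C after 20 min compound–enzyme preincubation. IC50 from 11-point half-log dilutions, top 10 μM.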

For the next test, the target named is CDK1/CCNB1 (Homo sapiens, UniProt P06493). Kind of test: CDK1 homogeneous time-resolved fluorescence (HTRF) kinase assay. To be noted: CDK1/CCNB. In a few lines:
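0.5 nM CDK1/CCNB1 was preincubated 20 min at 23 °C with compound in HEPES pH-unspecified buffer (MgCl2, EGTA, DTT, Tween 20), then reacted 60 min with 1 mM ATP and 50 nM ULight-4E-BP1 (Thr37/46) peptide. EDTA-stopped reactions were detected with 2 nM Eu-anti-phospho antibody; IC50 from 11-point half-log titrations.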

The mark [1] stands for this setting: x = IC50 <25 nM, read-out: CDK2/CCNE IC50 (<25 nM).
Setting [2] is: x = IC50 >250 nM, read-out: CDK6/CCND IC50 (>250 nM column).
The mark [3] stands for this setting: x = IC50 >250 nM, read-out: CDK4/CCND IC50 (>250 nM column).
The mark [4] stands for this setting: x = IC50 25-250 nM, read-out: CDK1/CCNB IC50 (25-250 nM).
[5] abbreviates: x = IC50 >250 nM, read-out: CDK1/CCNB IC50 (>250 nM column).
Setting [6] is: x = IC50 25-250 nM, read-out: CDK2/CCNE IC50 (25-250 nM).
[7] abbreviates: x = IC50 25-250 nM, read-out: CDK6/CCND IC50 (25-250 nM).
Where [8] appears, read: x = IC50 25-250 nM, read-out: CDK4/CCND IC50 (25-250 nM).

CDK4/CCND3, sequence (P11802 whole entry): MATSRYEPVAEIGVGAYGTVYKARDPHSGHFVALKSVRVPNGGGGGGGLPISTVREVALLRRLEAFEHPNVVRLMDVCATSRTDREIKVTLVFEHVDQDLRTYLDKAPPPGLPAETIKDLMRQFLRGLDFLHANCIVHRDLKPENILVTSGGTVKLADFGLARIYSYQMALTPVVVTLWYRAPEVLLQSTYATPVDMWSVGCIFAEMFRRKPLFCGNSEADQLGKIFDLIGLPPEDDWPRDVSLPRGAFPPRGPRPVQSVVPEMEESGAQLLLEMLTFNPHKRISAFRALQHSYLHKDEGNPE
CDK4/CCND3, sequence (P30281 whole entry partner): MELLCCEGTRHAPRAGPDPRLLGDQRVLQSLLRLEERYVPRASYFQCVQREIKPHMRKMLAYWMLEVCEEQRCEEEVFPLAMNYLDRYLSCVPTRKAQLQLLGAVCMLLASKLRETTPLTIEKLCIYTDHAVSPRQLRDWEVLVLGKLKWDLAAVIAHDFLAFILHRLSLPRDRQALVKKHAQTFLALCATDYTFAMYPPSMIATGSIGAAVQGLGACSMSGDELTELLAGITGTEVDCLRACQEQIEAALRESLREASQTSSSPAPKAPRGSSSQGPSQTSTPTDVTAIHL
CDK1/CCNB1, sequence (P06493 whole entry): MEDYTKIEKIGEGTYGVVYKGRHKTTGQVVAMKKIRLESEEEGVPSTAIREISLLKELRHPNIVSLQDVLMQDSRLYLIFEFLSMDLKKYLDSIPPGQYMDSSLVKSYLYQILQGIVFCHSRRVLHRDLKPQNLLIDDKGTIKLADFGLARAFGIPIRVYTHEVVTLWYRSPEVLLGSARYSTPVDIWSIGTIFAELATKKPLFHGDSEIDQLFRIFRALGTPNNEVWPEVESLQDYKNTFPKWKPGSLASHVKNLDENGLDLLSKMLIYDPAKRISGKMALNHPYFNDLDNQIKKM
CDK1/CCNB1, sequence (P14635 whole entry partner): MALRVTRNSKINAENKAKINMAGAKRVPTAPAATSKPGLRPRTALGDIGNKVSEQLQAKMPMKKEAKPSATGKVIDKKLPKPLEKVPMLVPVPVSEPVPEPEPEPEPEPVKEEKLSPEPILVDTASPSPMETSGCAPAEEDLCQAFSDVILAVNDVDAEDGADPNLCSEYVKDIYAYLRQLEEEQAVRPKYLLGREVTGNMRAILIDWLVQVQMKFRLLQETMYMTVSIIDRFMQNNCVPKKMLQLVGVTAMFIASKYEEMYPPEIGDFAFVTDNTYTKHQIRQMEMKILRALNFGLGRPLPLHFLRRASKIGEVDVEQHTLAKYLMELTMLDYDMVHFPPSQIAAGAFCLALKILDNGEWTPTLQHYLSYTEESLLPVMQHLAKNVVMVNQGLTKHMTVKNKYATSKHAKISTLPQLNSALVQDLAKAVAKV

Take `CNS(=O)(=O)c1ccc(Nc2cc3c(C#Cc4cccnc4N)nccc3cn2)c(C)c1` [Example 449, 4-((5-((2-aminopyridin-3-yl)ethynyl)-2,6-naphthyridin-3-yl)amino)-N,3-dimethylbenzenesulfonamide]: the IC50 at CDK2/CCNE1 (setting [1]) is below 25 nM; on CDK6/CCND1 (setting [2]), above 250 nM; at CDK4/CCND3 (setting [3]), above 250 nM; at CDK1/CCNB1 (setting [4]) it was 25 to 250 nM.

On to `Nc1ncccc1C#Cc1nccc2cnc(Nc3ccc(S(=O)(=O)Nc4nccc(N5CCOCC5)n4)cc3)cc12` [Example 464, 4-((5-((2-aminopyridin-3-yl)ethynyl)-2,6-naphthyridin-3-yl)amino)-N-(4-morpholinopyrimidin-2-yl)benzenesulfonamide], for which the IC50 on CDK2/CCNE1 (setting [1]) is below 25 nM; on CDK6/CCND1 (setting [2]) it was above 250 nM; at CDK4/CCND3 (setting [3]), above 250 nM; at CDK1/CCNB1 (setting [5]) it was above 250 nM.

On to `Nc1ncccc1C#Cc1nccc2cnc(Nc3cnc(O)c(N4CCNCC4)c3)cc12` [Example 465, 5-((5-((2-aminopyridin-3-yl)ethynyl)-2,6-naphthyridin-3-yl)amino)-3-(piperazin-1-yl)pyridin-2-ol], for which the IC50 was 25 to 250 nM on CDK2/CCNE1 (setting [6]), above 250 nM on CDK6/CCND1 (setting [2]), above 250 nM on CDK4/CCND3 (setting [3]) and above 250 nM at CDK1/CCNB1 (setting [5]).

Take `Cc1cc(C)nc(NS(=O)(=O)c2ccc(Nc3cc4c(C#Cc5cccnc5N)nccc4cn3)cc2)n1` [Example 471, 4-((5-((2-aminopyridin-3-yl)ethynyl)-2,6-naphthyridin-3-yl)amino)-N-(4,6-dimethylpyrimidin-2-yl)benzenesulfonamide]: the IC50 on CDK2/CCNE1 (setting [1]) is below 25 nM; at CDK6/CCND1 (setting [2]), above 250 nM; at CDK4/CCND3 (setting [3]) it was above 250 nM; at CDK1/CCNB1 (setting [4]), 25 to 250 nM.

As for `Cc1c(C#Cc2nccc3cnc(Nc4ccc(S(C)(=O)=O)cc4)cc23)ccc2oc(=O)[nH]c12` [Example 472, 4-Methyl-5-((7-((4-(methylsulfonyl)phenyl)amino)-2,6-naphthyridin-1-yl)ethynyl)benzo[d]oxazol-2(3H)-one], the IC50 at CDK2/CCNE1 (setting [1]) is below 25 nM; on CDK6/CCND1 (setting [2]) it was above 250 nM; at CDK4/CCND3 (setting [3]), above 250 nM; on CDK1/CCNB1 (setting [5]) it was above 250 nM.

On to `Nc1ncccc1C#Cc1nccc2cnc(Nc3ccc(S(N)(=O)=O)cc3)cc12` [Example 475, 4-((5-((2-aminopyridin-3-yl)ethynyl)-2,6-naphthyridin-3-yl)amino)benzenesulfonamide], for which the IC50 on CDK2/CCNE1 (setting [1]) is below 25 nM; at CDK6/CCND1 (setting [2]), above 250 nM; at CDK4/CCND3 (setting [3]) it was above 250 nM; on CDK1/CCNB1 (setting [4]) it was 25 to 250 nM.

`CS(=O)(=O)c1ccc(Nc2cc3c(C#Cc4ccc5[nH]c(=O)oc5c4)nccc3cn2)cc1` [Example 476, 6-((7-((4-(methylsulfonyl)phenyl)amino)-2,6-naphthyridin-1-yl)ethynyl)benzo[d]oxazol-2(3H)-one]: the IC50 is 25 to 250 nM at CDK2/CCNE1 (setting [6]), above 250 nM at CDK6/CCND1 (setting [2]), above 250 nM at CDK4/CCND3 (setting [3]) and above 250 nM at CDK1/CCNB1 (setting [5]).

Turning to `Cc1c(-c2nccc3cnc(Nc4ccc(S(C)(=N)=O)cc4)cc23)ccc2c1cnn2CC(O)(C(F)(F)F)C(F)(F)F` (centres unmarked) [Example 482, Imino(methyl)(4-((5-(4-methyl-1-(3,3,3-trifluoro-2-hydroxy-2-(trifluoromethyl)propyl)-1H-indazol-5-yl)-2,6-naphthyridin-3-yl)amino)phenyl)-λ^6-sulfanone], the IC50 at CDK2/CCNE1 (setting [1]) was below 25 nM; at CDK6/CCND1 (setting [7]), 25 to 250 nM; at CDK4/CCND3 (setting [8]) it was 25 to 250 nM; on CDK1/CCNB1 (setting [5]) it was above 250 nM.

With `CS(=O)(=O)c1ccc(Nc2cc3c(C#Cc4ccc(NC(=O)C5CC5)cc4)nccc3cn2)cc1` [Example 487, N-(4-((7-((4-(methylsulfonyl)phenyl)amino)-2,6-naphthyridin-1-yl)ethynyl)phenyl)cyclopropanecarboxamide], the IC50 is 25 to 250 nM at CDK2/CCNE1 (setting [6]), above 250 nM on CDK6/CCND1 (setting [2]), above 250 nM at CDK4/CCND3 (setting [3]) and above 250 nM on CDK1/CCNB1 (setting [5]).

Regarding `C[C@@H](C#Cc1nccc2cnc(Nc3ccc(S(C)(=O)=O)cc3)cc12)CO` [Example 488, (S)-2-methyl-4-(7-((4-(methylsulfonyl)phenyl)amino)-2,6-naphthyridin-1-yl)but-3-yn-1-ol], the IC50 on CDK2/CCNE1 (setting [1]) is below 25 nM; on CDK6/CCND1 (setting [7]) it was 25 to 250 nM; on CDK4/CCND3 (setting [8]), 25 to 250 nM; on CDK1/CCNB1 (setting [5]) it was above 250 nM.

In the case of `CS(=N)(=O)c1ccc(Nc2cc3c(C#Cc4cccnc4N)nccc3cn2)cc1` (centres unmarked) [Example 490, (4-((5-((2-aminopyridin-3-yl)ethynyl)-2,6-naphthyridin-3-yl)amino)phenyl)(imino)(methyl)-λ^6-sulfanone], the IC50 on CDK2/CCNE1 (setting [6]) was 25 to 250 nM; on CDK6/CCND1 (setting [2]), above 250 nM; at CDK4/CCND3 (setting [3]) it was above 250 nM; at CDK1/CCNB1 (setting [5]), above 250 nM.

Take `COC(=O)CCc1ccc(C#Cc2nccc3cnc(Nc4ccc(S(C)(=O)=O)cc4)cc23)cc1` [Example 493, methyl 3-(4-((7-((4-(methylsulfonyl)phenyl)amino)-2,6-naphthyridin-1-yl)ethynyl)phenyl)propanoate]: the IC50 at CDK2/CCNE1 (setting [6]) was 25 to 250 nM; at CDK6/CCND1 (setting [2]), above 250 nM; at CDK4/CCND3 (setting [3]), above 250 nM; at CDK1/CCNB1 (setting [5]) it was above 250 nM.

Consider `CS(=O)(=O)c1ccc(Nc2cc3c(C#Cc4ccc(CCC(=O)O)cc4)nccc3cn2)cc1` [Example 494, 3-(4-((7-((4-(methylsulfonyl)phenyl)amino)-2,6-naphthyridin-1-yl)ethynyl)phenyl)propanoic acid], for which the IC50 at CDK2/CCNE1 (setting [1]) is below 25 nM; at CDK6/CCND1 (setting [2]), above 250 nM; on CDK4/CCND3 (setting [3]), above 250 nM; on CDK1/CCNB1 (setting [5]), above 250 nM.

On to `CS(=O)(=O)c1ccc(Nc2cc3c(C#Cc4n[nH]c(=O)c5ccccc45)nccc3cn2)cc1` [Example 495, 4-((7-((4-(methylsulfonyl)phenyl)amino)-2,6-naphthyridin-1-yl)ethynyl) phthalazin-1(2H)-one], for which the IC50 on CDK2/CCNE1 (setting [6]) was 25 to 250 nM; at CDK6/CCND1 (setting [2]), above 250 nM; on CDK4/CCND3 (setting [3]), above 250 nM; on CDK1/CCNB1 (setting [5]), above 250 nM.

For the compound `CS(=O)(=O)c1ccc(Nc2cc3c(C#Cc4n[nH]c5cnccc45)nccc3cn2)cc1` [Example 496, 5-((1H-pyrazolo[3,4-c]pyridin-3-yl)ethynyl)-N-(4-(methylsulfonyl)phenyl)-2,6-naphthyridin-3-amine], the IC50 at CDK2/CCNE1 (setting [1]) was below 25 nM; at CDK6/CCND1 (setting [2]) it was above 250 nM; at CDK4/CCND3 (setting [3]) it was above 250 nM; on CDK1/CCNB1 (setting [5]), above 250 nM.

On to `CS(=O)(=O)c1ccc(Nc2cc3c(C#Cc4c(N)ncnc4Cl)nccc3cn2)cc1` [Example 510, 5-((4-amino-6-chloropyrimidin-5-yl)ethynyl)-N-(4-(methylsulfonyl)phenyl)-2,6-naphthyridin-3-amine], for which the IC50 was below 25 nM on CDK2/CCNE1 (setting [1]), above 250 nM at CDK6/CCND1 (setting [2]), above 250 nM on CDK4/CCND3 (setting [3]) and above 250 nM at CDK1/CCNB1 (setting [5]).

For `COc1cnc(C#Cc2nccc3cnc(Nc4ccc(S(C)(=O)=O)cc4)cc23)nc1` [Example 513, 5-((5-methoxypyrimidin-2-yl)ethynyl)-N-(4-(methylsulfonyl)phenyl)-2,6-naphthyridin-3-amine], the IC50 was above 250 nM at CDK2/CCNE1 (x = IC50 >250 nM, read-out: CDK2/CCNE IC50 (>250 nM column)); above 250 nM at CDK6/CCND1 (setting [2]); above 250 nM at CDK4/CCND3 (setting [3]); above 250 nM on CDK1/CCNB1 (setting [5]).
